Assay [1] concerns primary human T-cells. As to the kind of experiment: Primary human T-cell proliferation assay stimulated with IL-2 (CellTiter-Glo). The format is cell-based. Conditions: primary human T-cells, IL-2, 72 hours, ATP readout; read-out: Example 4 IC50. From the text: In this assay, primary human T-cells derived from peripheral blood and pre-activated through stimulation of the T-cell receptor and CD28, proliferate in culture in response to the cytokine Interleukin-2 (IL-2). This proliferative response is dependent on the activation of JAK1 and JAK3 tyrosine kinases, which phosphorylate and activate the transcription factor Stat-5. […] A reduction in cell proliferation compared to control conditions is indicative of inhibition of the JAK kinase pathway. An exemplary assay of this type is described in greater detail below.
Primary human T-cells derived from peripheral blood and pre-activated through stimulation of the T-cell receptor and CD28, proliferate in vitro in response to the cytokine Interleukin-2 (IL-2). This proliferative response is dependent on the activation of JAK-1 and JAK-3 tyrosine kinases, which phosphorylate and activate the transcription factor Stat-5.
Human primary T cells were prepared as follows. […] The lymphocytes at the serum: ficoll interface were recovered and washed twice with 5 volumes of PBS. […] The primary T-cells were stimulated for 3-4 days, then transferred to a fresh flask and maintained in RPMI with 10% FBS and 40 U/mL IL-2.
Primary T-cells were washed twice with PBS to remove the IL-2 and resuspended in Yssel's medium at 2×10^6 cells/mL. 50 μL of cell suspension containing 80 U/mL IL-2 was added to each well of a flat bottom 96 well black plate. For the unstimulated control, IL-2 was omitted from the last column on the plate. […] 50 μL of 2× compound was added per well in duplicate and the cells were allowed to proliferate for 72 hours at 37° C.
Proliferation was measured using CellTiter-Glo® Luminescent Cell Viability Assay (Promega), which determines the number of viable cells in culture based on quantitation of the ATP present, as an indicator of metabolically active cells. The substrate was thawed and allowed to come to room temperature. After mixing the Cell Titer-Glo reagent and diluent together, 100 μL was added to each well. […]

Assay [2] concerns JAK1/JAK2 pathway. As to the kind of experiment: A549 epithelial line stimulated with IFNγ, ICAM-1 surface expression (FACS). In kind it is cell-based, human. Conditions: A549 cells, IFNγ 75 ng/mL, 24 hours, ICAM-1 expression; read-out: Example 5 IC50. The text has this:
The JAK activity of the compounds described herein may also be characterized by assaying the effect of compounds I and II described herein on A549 lung epithelial cells and U937 cells. A549 lung epithelial cells and U937 cells up-regulate ICAM-1 (CD54) surface expression in response to a variety of different stimuli. Therefore, using ICAM-1 expression as readout, test compound effects on different signaling pathways can be assessed in the same cell type. Stimulation with IL-1β through the IL-1β receptor activates the TRAF6/NFκB pathway resulting in up-regulation of ICAM-1. IFNγ induces ICAM-1 up-regulation through activation of the JAK1/JAK2 pathway. The up-regulation of ICAM-1 can be quantified by flow cytometry across a compound dose curve and EC50 values are calculated. […]
A549 lung epithelial cells up-regulate ICAM-1 (CD54) surface expression in response to a variety of different stimuli. Therefore, using ICAM-1 expression as readout, compound effects on different signaling pathways can be assessed in the same cell type. […] In this example, the up-regulation of ICAM-1 by IFNγ was assessed. […]
On day three, the cell media was removed and the cells were washed with 200 μL PBS (phosphate buffered saline). […] Cells were washed with ice cold FACS buffer (PBS+2% FBS) and surface ICAM-1 expression was analyzed by flow cytometry. […]

This is an account of results in patent publication US8497279B2, “Treatment for discoid lupus” (Rigel Pharmaceuticals, Inc., priority 2011, dated 2013).

Each structure is given as a SMILES string. Counter-ions that a name gives are not always drawn.

Regarding `C#CCOc1ccc(Nc2nc(Nc3ccc(C)c(S(=O)(=O)NC(=O)CC)c3)ncc2F)cc1` [VI, 5-Fluoro-N2-[4-methyl-3-(N-propionylaminosulfonyl)phenyl]-N4-[4-(2-propynyloxy)phenyl]-2,4-pyrimidinediamine Arginine Salt], the 50% inhibitory concentration (IC50) was 262 nM in assay [1] and 4970 nM in assay [2].
